Laboratory results as given in PubChem BioAssay AID268 (DTP/NCI, 2004).
“And” between values parts separate entries of the source, which are not always exact repeats. Equal values may be shown once.

Test system: CD2F1 mice, P1798 lymphosarcoma sc, tumor weight T/C
Test: NCI In Vivo Anticancer Drug Screen. Data for tumor model P1798 Lymphosarcoma (subcutaneous) in CD2F1 (CDF1) mice
Conditions: endpoint: mean tumor weight, higher = larger tumour
Protocol: The antitumor activity of compounds was measured in mice bearing transplantable tumors. Survival or tumor size were measured and the results are expressed as the measurement made in the treated group (T) divided by the measurement made in the vehicle treated control group (C). The tumor model used in this assay is P1798 Lymphosarcoma (subcutaneous) in CD2F1 (CDF1) mice

[1] = dose: 25.0 mg/kg/injection, schedule: Q01DX010 (ip), vehicle: saline

Nc1nncs1
T/C (dose: 1.88 mg/kg/injection, schedule: Q01DX010 (ip), vehicle: saline): 93 % of control
T/C (dose: 3.75 mg/kg/injection, schedule: Q01DX010 (ip), vehicle: saline): 68 % of control
T/C (dose: 7.5 mg/kg/injection, schedule: Q01DX010 (ip), vehicle: saline): 69 % of control
T/C (dose: 15.0 mg/kg/injection, schedule: Q01DX010 (ip), vehicle: saline): 52 % of control and 59 % of control
T/C (dose: 30.0 mg/kg/injection, schedule: Q01DX010 (ip), vehicle: saline): 7 % of control

CC(=O)OCC(=O)[C@@]1(O)CC[C@H]2[C@@H]3CCC4=CC(=O)C=C[C@]4(C)[C@H]3[C@@H](O)C[C@@]21C
T/C (dose: 2.5 mg/kg/injection, schedule: Q01DX Z (sc), vehicle: steriod suspending solution): 92 % of control
T/C (dose: 5.0 mg/kg/injection, schedule: Q01DX010 (sc), vehicle: steriod suspending solution): 20 % of control
T/C (dose: 5.0 mg/kg/injection, schedule: Q01DX Z (sc), vehicle: steriod suspending solution): 107 % of control
T/C (dose: 10.0 mg/kg/injection, schedule: Q01DX010 (sc), vehicle: steriod suspending solution): 4 % of control
T/C (dose: 10.0 mg/kg/injection, schedule: Q01DX Z (sc), vehicle: steriod suspending solution): 100 % of control and 88 % of control
T/C (dose: 20.0 mg/kg/injection, schedule: Q01DX010 (sc), vehicle: steriod suspending solution): 5 % of control
T/C (dose: 20.0 mg/kg/injection, schedule: Q01DX Z (sc), vehicle: steriod suspending solution): 119 % of control
T/C (dose: 40.0 mg/kg/injection, schedule: Q01DX010 (sc), vehicle: steriod suspending solution): 5 % of control
T/C (dose: 40.0 mg/kg/injection, schedule: Q01DX Z (sc), vehicle: steriod suspending solution): 77 % of control
T/C (dose: 80.0 mg/kg/injection, schedule: Q01DX Z (sc), vehicle: steriod suspending solution): 57 % of control

N=C(N)c1ccc(Nc2ccc(C(=N)N)cc2)cc1
T/C (dose: 1.5 mg/kg/injection, schedule: Q01DX010 (ip), vehicle: saline): 85 % of control
T/C (dose: 3.0 mg/kg/injection, schedule: Q01DX010 (ip), vehicle: saline): 82 % of control
T/C (dose: 6.0 mg/kg/injection, schedule: Q01DX010 (ip), vehicle: saline): 119 % of control
T/C (dose: 12.0 mg/kg/injection, schedule: Q01DX010 (ip), vehicle: saline): 77 % of control

CC1CC(C)OS(=O)O1 (configuration not stated)
T/C (dose: 44.0 mg/kg/injection, schedule: Q01DX010 (ip), vehicle: saline): 70 % of control
T/C (dose: 66.0 mg/kg/injection, schedule: Q01DX010 (ip), vehicle: saline): 30 % of control

O=C(C(=O)N1CC1)c1c[nH]c2ccccc12
T/C (dose: 3.13 mg/kg/injection, schedule: Q01DX010 (ip), vehicle: saline): 90 % of control
T/C (dose: 6.25 mg/kg/injection, schedule: Q01DX010 (ip), vehicle: saline): 105 % of control
T/C (dose: 12.5 mg/kg/injection, schedule: Q01DX010 (ip), vehicle: saline): 92 % of control and 99 % of control
T/C [1]: 108 % of control

COC1C(OC(=O)/C=C/C=C/C=C/C=C/C(=O)O)CCC2(CO2)C1C1(C)OC1CC=C(C)C (configuration not stated)
T/C [1]: 56 % of control
T/C (dose: 50.0 mg/kg/injection, schedule: Q01DX010 (ip), vehicle: saline): 46 % of control
T/C (dose: 100.0 mg/kg/injection, schedule: Q01DX010 (ip), vehicle: saline): 28 % of control

CSCS(=O)C[C@H](CO)NC(=O)/C=C/c1c(C)[nH]c(=O)[nH]c1=O (some centres not stated)
T/C (dose: 0.13 mg/kg/injection, schedule: Q01DX010 (ip), vehicle: saline): 94 % of control
T/C (dose: 0.25 mg/kg/injection, schedule: Q01DX010 (ip), vehicle: saline): 99 % of control
T/C (dose: 0.5 mg/kg/injection, schedule: Q01DX010 (ip), vehicle: saline): 15 % of control

C[C@]12C=CC(=O)C=C1CC[C@@H]1[C@@H]2[C@@H](O)C[C@@]2(C)[C@H]1CC[C@]2(O)C(=O)CO
T/C (dose: 12.5 mg/kg/injection, schedule: Q01DX005 (sc), vehicle: steriod suspending solution): 41 % of control
T/C (dose: 12.5 mg/kg/injection, schedule: Q01DX010 (sc), vehicle: steriod suspending solution): 42 % of control and 46 % of control
T/C (dose: 25.0 mg/kg/injection, schedule: Q01DX005 (sc), vehicle: steriod suspending solution): 48 % of control
T/C (dose: 25.0 mg/kg/injection, schedule: Q02DX010 (sc), vehicle: steriod suspending solution): 100 % of control
T/C (dose: 25.0 mg/kg/injection, schedule: Q03DX004 (sc), vehicle: steriod suspending solution): 87 % of control
T/C (dose: 50.0 mg/kg/injection, schedule: Q01DX005 (sc), vehicle: steriod suspending solution): 22 % of control
T/C (dose: 50.0 mg/kg/injection, schedule: Q02DX010 (sc), vehicle: steriod suspending solution): 100 % of control
T/C (dose: 50.0 mg/kg/injection, schedule: Q03DX004 (sc), vehicle: steriod suspending solution): 92 % of control
T/C (dose: 100.0 mg/kg/injection, schedule: Q01DX005 (sc), vehicle: steriod suspending solution): 20 % of control
T/C (dose: 100.0 mg/kg/injection, schedule: Q02DX010 (sc), vehicle: steriod suspending solution): 96 % of control
T/C (dose: 100.0 mg/kg/injection, schedule: Q03DX004 (sc), vehicle: steriod suspending solution): 100 % of control
